In brackets after ≈: the same amount, converted by molar mass.
Experiments:
[1] = target: T1, hydroxylase of methane monooxygenase (Methylosinus trichosporium, UniProt P27353); test: Multiple turnover oxidation of hydrocarbon substrates using hydrogen peroxide; assay type: biochemical, Methylosinus trichosporium OB3b; conditions: H2O2 coupled
T1 construct: The novel high activity hydroxylase of the present invention was obtained from Methylosinus trichosporium OB3b; endogenous in cells; host or cells: Methylosinus trichosporium OB3b; hydroxylase purified from the bacteria
T1 sequence (P27353 1-526): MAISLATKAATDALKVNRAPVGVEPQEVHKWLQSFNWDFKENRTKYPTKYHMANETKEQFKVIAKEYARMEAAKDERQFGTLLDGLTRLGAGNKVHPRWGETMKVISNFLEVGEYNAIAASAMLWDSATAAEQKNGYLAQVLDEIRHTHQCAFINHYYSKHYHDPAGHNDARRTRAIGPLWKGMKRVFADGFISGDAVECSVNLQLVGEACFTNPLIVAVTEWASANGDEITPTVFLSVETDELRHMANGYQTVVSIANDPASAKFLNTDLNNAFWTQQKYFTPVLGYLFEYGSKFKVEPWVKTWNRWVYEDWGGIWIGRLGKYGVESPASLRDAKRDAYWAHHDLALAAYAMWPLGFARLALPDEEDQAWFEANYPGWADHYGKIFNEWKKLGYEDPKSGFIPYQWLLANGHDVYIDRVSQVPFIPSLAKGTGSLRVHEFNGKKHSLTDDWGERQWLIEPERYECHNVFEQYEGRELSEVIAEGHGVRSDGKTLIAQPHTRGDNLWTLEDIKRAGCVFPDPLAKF
T1 sequence (P27354 1-394 partner): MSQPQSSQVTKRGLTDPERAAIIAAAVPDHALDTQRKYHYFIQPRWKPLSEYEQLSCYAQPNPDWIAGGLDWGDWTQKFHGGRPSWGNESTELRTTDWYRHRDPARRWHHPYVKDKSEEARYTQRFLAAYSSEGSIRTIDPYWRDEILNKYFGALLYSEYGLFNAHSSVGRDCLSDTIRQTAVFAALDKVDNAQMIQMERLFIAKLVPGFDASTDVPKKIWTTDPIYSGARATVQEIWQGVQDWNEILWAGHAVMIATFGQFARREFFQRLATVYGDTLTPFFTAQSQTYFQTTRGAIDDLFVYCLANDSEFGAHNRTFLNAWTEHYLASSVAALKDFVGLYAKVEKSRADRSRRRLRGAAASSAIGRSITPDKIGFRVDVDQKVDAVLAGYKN
T1 sequence (P27355 1-169 partner): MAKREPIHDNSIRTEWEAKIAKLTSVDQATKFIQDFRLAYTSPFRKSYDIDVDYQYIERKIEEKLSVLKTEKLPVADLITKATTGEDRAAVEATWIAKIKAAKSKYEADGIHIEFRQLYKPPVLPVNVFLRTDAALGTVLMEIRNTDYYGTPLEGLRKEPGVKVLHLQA
Experimental: . Substrates were injected into the respective reaction vials as follows: gaseous substrates (3 ml) were injected into the headspace of the reaction vial; liquid substrates (50 μls) were injected directly into the protein solution. The protein solution and substrate were allowed to equilibrate for five minutes in a water bath shaker at 30° C. Each reaction was initiated by injection of H2 O2 (20 μl of 1.0 MH2 O2 in water) to a concentration of about 100 mM H2 O2. After an appropriate period (2 minutes) a portion of the reaction mixture was removed, the reaction terminated, and the sample prepared for analysis.
Samples were analyzed for products as follows: The benzene, substituted benzenes and pyridine samples were analyzed by High Pressure Liquid Chromatography (HPLC). The reaction in each sample was quenched by addition of 2 volumes of ethanol or 3% trichloroacetic acid which caused precipitation of the hydroxylase. The samples were centrifuged for two minutes (10,800×g) and the precipitated hydroxylase removed. A portion of each supernatant was injected into a Beckman HPLC equipped with a reverse-phase column (C18 matrix) and UV detection capability.
All other samples were analyzed by gas chromatography. Except for the methane sample, all analyses were performed as follows: The reaction in each sample was quenched by addition of an equal volume chloroform (CHCl3) followed by vortexing for a brief period. The sample was centrifuged for two minutes (10,800×g) to separate the CHCl3 layer from the sample solution. A portion of the CHCl3 layer was injected into a Hewlett Packard 5890A gas chromatograph (100% methylsilicone column matrix) for analysis of the products.
For the methane sample, the reaction was quenched by addition of 0.1M acid to a pH of 2.9. The resulting aqueous phase was separated from the hydroxylase using a YM30 Centricon ultrafiltration unit. The filtrate was analyzed for methanol by gas chromatography.
Products resulting from the various substrates were identified by comparison with standard compounds.

[2] = target: T2, complete methane monooxygenase (Methylosinus trichosporium, UniProt P27353); test: Polarographic assay of methane monooxygenase activity with furan as substrate; assay type: biochemical, Methylosinus trichosporium OB3b
T2 construct: A soluble three-component methane monooxygenase from the Type II methanotroph Methylosinus trichosporium OB3b was purified to homogeneity; endogenous in cells; host or cells: Methylosinus trichosporium OB3b, grown on methane; components purified from cell-free extract
T2 sequence (P27353 1-526): T1 sequence (P27353 1-526)
T2 sequence (P27354 1-394 partner): T1 sequence (P27354 1-394 partner)
T2 sequence (P27355 1-169 partner): T1 sequence (P27355 1-169 partner)
Experimental: Enzyme Assays--Assays of bacterial cells were performed at 30° C. using cells harvested directly from the fermentor vessel. Methane oxidation was measured by gas chromatography by monitoring depletion of methane from the headspace of 30 ml reaction vials. Oxygen consumption was measured polarographically as described by Arciero et al. (J. Biol. Chem. 258, 14981-14991, 1983). The bacterial suspension was supplemented with 100 μM formaldehyde before gas chromatographic assays for conversion of propene to propene oxide in order to allow adequate regeneration of NADH by endogenous formaldehyde and formate dehydrogenases. Gas chromatographic and polarographic assays of the methane monooxygenase system were performed as described by Fox et al. (Biochem. Biophys. Res. Comm. 154, 165-170, 1988). Unless explicitly stated, the specific activity values reported for the enzyme components are those observed during the hydroxylation reaction in the presence of optimal concentrations of the other components of the methane monooxygenase. The optimal concentrations were determined by varying the concentration of one component relative to fixed concentrations of the other two components. In routine polarographic assays of methane monooxygenase activity, furan is an acceptable substrate with characteristics which facilitate the assay. […]

physchem = assay type: physicochemical; conditions: water, 30° C.
[3] = 90 psi propane, up to two days, t-butyl peroxide; cited from earlier work
methane monooxygenase = target: T3, methane monooxygenase (Methylococcus capsulatus, UniProt P22869); conditions: Table II, purified component from Methylococcus capsulatus (Bath); cited from earlier work
T3 construct: methane monooxygenases isolated from the Type I organism, Methylococcus capsulatus (Bath); host or cells: Methylococcus capsulatus (Bath)
T3 sequence (P22869 whole entry, looked up): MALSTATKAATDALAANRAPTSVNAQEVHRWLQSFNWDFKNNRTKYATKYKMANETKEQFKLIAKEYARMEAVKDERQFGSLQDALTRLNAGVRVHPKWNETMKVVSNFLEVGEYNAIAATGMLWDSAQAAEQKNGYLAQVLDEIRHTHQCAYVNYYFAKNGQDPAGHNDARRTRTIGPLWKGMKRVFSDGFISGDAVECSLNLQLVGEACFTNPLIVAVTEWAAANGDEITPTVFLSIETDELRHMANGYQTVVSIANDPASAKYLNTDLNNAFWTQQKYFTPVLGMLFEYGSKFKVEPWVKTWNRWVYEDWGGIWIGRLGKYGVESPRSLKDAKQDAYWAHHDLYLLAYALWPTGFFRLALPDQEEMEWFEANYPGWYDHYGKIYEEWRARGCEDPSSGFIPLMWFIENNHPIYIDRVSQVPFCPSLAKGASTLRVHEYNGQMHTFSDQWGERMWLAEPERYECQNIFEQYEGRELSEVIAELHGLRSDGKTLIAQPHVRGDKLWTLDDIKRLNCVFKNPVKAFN

With `CC1(C)CC1` [1,1-dimethylcyclopropane] the “Relative Distribution (Percent), product 1-methylcyclobutanol” value [1] was 14%, the “Relative Distribution (Percent), product 3-methyl-3-buten-1-01” value [1] was “none detected” and the “Relative Distribution (Percent), product Methylcyclopropylmethanol” value [1] was 86%.
For `c1ccccc1` [Benzene], the “Relative Distribution (Percent), product Phenol” value [1] was 100%.
For `CCCC` [Butane], the “Relative Distribution (Percent), product 1-butanol” value [1] was 64% and the “Relative Distribution (Percent), product 2-butanol” value [1] was 36%.
For `CC` [Ethane], the “Relative Distribution (Percent), product Ethanol” value [1] was 100%.
In the case of `CC(C)C` [Isobutane], the “Relative Distribution (Percent), product 2-methyl-1-propanol” value [1] is reported as 61% and the “Relative Distribution (Percent), product 2-methyl-2-propanol” value [1] is reported as 39%.
In the case of `CCC(C)C` [Isopentane], the “Relative Distribution (Percent), product 2-methyl-1-butanol” value [1] is reported as 25%, the “Relative Distribution (Percent), product 2-methyl-2-butanol” value [1] is reported as 41% and the “Relative Distribution (Percent), product 3-methyl-1-butanol” value [1] is reported as 11%. The “Relative Distribution (Percent), product 3-methyl-2-butanol” value [1] was 24%.
With `C` [Methane] the “Relative Distribution (Percent), product Methanol” value ([1]; about 100 mM H2O2, 2 minutes) was 100%.
For `O=[N+]([O-])c1ccccc1` [Nitrobenzene], the “Relative Distribution (Percent), product m-Nitrophenol” value [1] was 53%, the “Relative Distribution (Percent), product o-Nitrophenol” value [1] was 5% and the “Relative Distribution (Percent), product p-Nitrophenol” value [1] was 42%.
With `CCC` [Propane] the “Relative Distribution (Percent), product 1-propanol” value [1] was 15% and the “Relative Distribution (Percent), product 2-propanol” value [1] was 85%.
In the case of `C=CC` [Propene], the “Relative Distribution (Percent), product Propylene Oxide” value [1] is reported as 100%.
With `c1ccncc1` [Pyridine] the “Relative Distribution (Percent), product Pyridine-N-oxide” value [1] was 100%.
`c1ccoc1` [furan] showed a Km ([2]; read-out: KM(app)) of 0.02 mM, a turnover number ([2]; relative to the hydroxylase) of 7.6 s⁻¹ and a solubility (physchem) of 64 mM (≈ 4360 µg/mL).
In the case of Fe2 O(OAc)2 Cl2 (bipy)2, the “yield of 2-propanol from propane” value [3] is listed as 8.8%.
For “reductase from Methylococcus capsulatus (Bath): literature reductase, Colby et al. 1979”, the Specific activity (methane monooxygenase) is listed as 6000.

Source: US5192672A, “Method for oxidizing hydrocarbons with a hydroxylase from a methane monooxygenase” (Amoco Corporation, priority 1991, dated 1993)
